Entries after “also recorded” stand apart in the source; their conditions may differ.
Tests used:
RIPK4 = RIPK4 (Homo sapiens (Human), UniProt P57078); assay: Wild type kinase screen: RIPK4; format: biochemical; settings: compound at 10 μM, 10 μM ATP, Data 1 and Data 2 duplicates
CAMK2g = CAMK2g (Homo sapiens (Human), UniProt Q13555); assay: Wild type kinase screen: CAMK2g; format: biochemical; settings: compound at 10 μM, 10 μM ATP, Data 1 and Data 2 duplicates
MAPKAPK2 = MAPKAPK2 (Homo sapiens (Human), UniProt P49137); assay: Wild type kinase screen: MAPKAPK2; format: biochemical; settings: compound at 10 μM, 10 μM ATP, Data 1 and Data 2 duplicates
Human ACC2 = Human ACC2 (Homo sapiens (Human), UniProt O00763); assay: ACC2 enzymatic assay (ADP-Glo); format: biochemical; design: key to Compound IC50 (M) ACC2: *: No detectable inhibition or compound activity; settings: recombinant human ACC2 1 nM; 10 concentrations from 300 μM; Runs 1-3
Experimental: Human ACC1 (Cat #50202 Lot #120830) and ACC2 (Cat #50201 Lot #160217) were obtained from BPS Biosciences, San Diego, CA 92121. Human ACC1 had C-terminal flag and His-tags with a MW of 270 KDa after purification from Baculovirus infected Sf9 cell expression system and came as a solution in 50 mM Tris-HCl, pH 8.0, 500 mM NaCl, 10% glycerol, 1 mM DTT, 100 μg/ml FLAG peptide with 70% purity. The stock concentration was 0.25 mg/ml corresponding to 0.926 μM. Human ACC2 was also purified from Baculovirus infected Sf9 expression system. […] The stock concentration was 0.1 mg/ml corresponding to 0.36 μM. The assay buffer for measuring the activity of ACC contained: 30 mM HEPES (pH 7.4), 2 mM MgCl2, 0.01% Brij35, 2 mM DTT, 1% DMSO (solvent for compound). For ACC1 and ACC2 assays, the following concentrations of substrate and cofactors were used: 12 mM NaHCO3, 10 μM acetyl CoA, 10 μM ATP, and 2 mM K-citrate. The recombinant human enzyme was used at 5 nM for ACC1 and 1 nM for ACC2. In brief, enzyme alone in the above buffer without substrate was used for background. All test materials were dissolved in 100% DMSO using acoustic technology (Echo550). The prepared solution was preincubated for 15 min followed by the addition of 5 μL/well of ADP standard. ATP was then added to start the reaction. The assay contents were spun and briefly shaken followed by incubation at room temperature for 1 h. At the end of completion of assay, 5 μL of ADP-Glo was added to each well to stop the reaction. The contents were mixed, spun and incubated at room temperature for 40 min followed by the addition of 10 μL/well of ADP detection reagent. The contents were spun, mixed and covered with plastic to measure luminescence. […] The light generated, measured in a luminometer, correlates to the amount of ADP generated in the ACC assay, which is indicative of ACC activity.
The enzyme concentrations for ACC1 and ACC2 were 5 nM and 1 nM, respectively.
Data represent nM or μM ADP produced, % Activity (relative to no inhibitor controls), and curve fits were performed by GraphPad Prism software. The IC50 concentration-response curves were generated for both the ACC1 and ACC2 assays using recombinant human ACC.

MLCK/MYLK = MLCK/MYLK (Homo sapiens (Human), UniProt Q15746); assay: Wild type kinase screen: MLCK/MYLK; format: biochemical; settings: compound at 10 μM, 10 μM ATP, Data 1 and Data 2 duplicates
[1] = tested on: UUO-induced renal fibrosis; assay: Murine unilateral ureter obstruction (UUO) renal fibrosis model; format: in vivo, mouse; settings: 100 mg/kg oral gavage daily for 9 days after UUO, mice
Experimental: Animal studies were carried out in accordance with the principles of laboratory animal care of the Canadian Council on Animal Care guidelines. Male C57BL/6 mice were obtained from Charles Rivers Laboratories. FIG. 13A summarizes the timeline for this experiment. UUO model was created as follows: male C57BL6J mice (8 weeks old from Charles River Laboratories) were anesthetized with 4% isofluorane and an anesthetic plane was maintained throughout surgery at 1.5-2% isofluorane with 1 L/min oxygen. A 0.5 cm incision was made longitudinally on the left flank. The left ureter and lower pole of the kidney was exposed, and the ureter was ligated with a 6′0 silk suture in close proximity to the renal pelvis. A sham operation control group was created by surgical exposure of the left ureter and lower pole of the kidney followed by closure of the incision. Subcutaneous fluids were given (1.5 ml 0.9% NaCl) and the incision was closed with 4′0 silk sutures followed by staples for the skin. Starting the day of model creation, the animals were given a daily dose of either vehicle alone (sham surgery and UUO control, 1.5% CMC and 0.2% Tween-20) or vehicle containing Compound I-32 or Compound I-1 (at 100 mg/kg) by oral gavage for 9 days following surgery. At the end of the treatment period mice were anesthetized prior to euthanasia by bilateral thoraco-abdominal incision. Blood was collected by cardiac puncture, followed by kidney perfusion with cold saline through left ventricular cannulation. The left kidney was removed, a sample taken and fixed in formalin for histological analysis. Trichrome staining was done on formalin-fixed sections (4 μm) following deparaffinization according to manufacturer's instructions (Sigma HT15-1KT). Images were quantified by measuring the percentage of positive area using Image J on micrographs captured at x200 magnification using the BX41 Olympus microscope. Statistical analysis was performed using GraphPad Prism 8. A one-way ANOVA was used to determine significance. A p-value of less than or equal to 0.05 was used as the criterion of significance. This route was selected because it simulates oral administration to mammalian, including human, subjects and ensures that the correct dose of compound is ingested by each animal.
Immunohistochemistry. Formalin-fixed kidneys were embedded in paraffin, then sectioned at 4 μm. After deparaffinization, they were stained with Masson's trichrome to assess collagen content (Sigma Aldrich, catalogue no. HT15-1T), picrosirius red (PSR) to more specifically assess pathogenic collagens I and III (Polysciences, Inc., catalogue no. 24901-500), αSMA as a marker of activated, profibrotic fibroblasts (PIERCE, catalogue no. MA1-06110; 30 min steaming for antigen retrieval, antibody used at 1:5000 for 2 h at room temperature), CD3 to identify T-lymphocytes (Dako, catalogue no. A0452; 30 min steaming for antigen retrieval, antibody used at 1:500 overnight at 4° C.) and F4/80 to identify macrophages (done by the McMaster Histology Facility). Slides were counterstained with hematoxylin, dehydrated twice with 90% ethanol, cleared twice with xylene, coverslipped with mounting media, and then left to dry overnight before imaging. Masson's trichrome, αSMA, CD3 and F4/80 were imaged under transmitted light and quantified using ImageJ. The Olympus IX81 fluorescence microscope driven by Metamorph was used to image and quantify PSR staining. Images were quantified by measuring the percentage of positive area. All micrographs were captured at x20 magnification.

GSK3b = GSK3b (Homo sapiens (Human), UniProt P49841); assay: Wild type kinase screen: GSK3b; format: biochemical; settings: compound at 10 μM, 10 μM ATP, Data 1 and Data 2 duplicates
Aurora B = Aurora B (Homo sapiens (Human), UniProt Q96GD4); assay: Wild type kinase screen: Aurora B; format: biochemical; settings: compound at 10 μM, 10 μM ATP, Data 1 and Data 2 duplicates
Sequence of Aurora B (Q96GD4 whole entry): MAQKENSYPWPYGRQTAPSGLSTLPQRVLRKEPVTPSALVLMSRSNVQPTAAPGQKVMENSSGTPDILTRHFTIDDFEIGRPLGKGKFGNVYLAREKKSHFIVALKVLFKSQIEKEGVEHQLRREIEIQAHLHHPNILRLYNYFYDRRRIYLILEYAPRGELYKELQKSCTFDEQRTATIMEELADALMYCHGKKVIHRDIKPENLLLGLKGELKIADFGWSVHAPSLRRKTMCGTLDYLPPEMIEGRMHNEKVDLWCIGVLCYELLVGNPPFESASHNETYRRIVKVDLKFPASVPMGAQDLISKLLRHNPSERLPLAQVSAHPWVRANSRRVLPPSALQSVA

Sequence of MAPKAPK2 (P49137 whole entry, species assumed): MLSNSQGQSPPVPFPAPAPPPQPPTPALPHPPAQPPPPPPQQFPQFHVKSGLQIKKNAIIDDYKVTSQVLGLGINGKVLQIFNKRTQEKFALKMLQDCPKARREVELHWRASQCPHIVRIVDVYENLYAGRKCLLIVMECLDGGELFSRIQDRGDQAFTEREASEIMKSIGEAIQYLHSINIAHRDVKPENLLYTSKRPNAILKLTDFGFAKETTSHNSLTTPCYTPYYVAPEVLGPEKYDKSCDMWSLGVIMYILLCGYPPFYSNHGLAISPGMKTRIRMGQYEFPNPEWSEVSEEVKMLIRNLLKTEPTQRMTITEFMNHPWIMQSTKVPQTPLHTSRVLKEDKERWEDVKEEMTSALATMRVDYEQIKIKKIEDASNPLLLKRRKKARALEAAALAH
Sequence of GSK3b (P49841 whole entry, species assumed): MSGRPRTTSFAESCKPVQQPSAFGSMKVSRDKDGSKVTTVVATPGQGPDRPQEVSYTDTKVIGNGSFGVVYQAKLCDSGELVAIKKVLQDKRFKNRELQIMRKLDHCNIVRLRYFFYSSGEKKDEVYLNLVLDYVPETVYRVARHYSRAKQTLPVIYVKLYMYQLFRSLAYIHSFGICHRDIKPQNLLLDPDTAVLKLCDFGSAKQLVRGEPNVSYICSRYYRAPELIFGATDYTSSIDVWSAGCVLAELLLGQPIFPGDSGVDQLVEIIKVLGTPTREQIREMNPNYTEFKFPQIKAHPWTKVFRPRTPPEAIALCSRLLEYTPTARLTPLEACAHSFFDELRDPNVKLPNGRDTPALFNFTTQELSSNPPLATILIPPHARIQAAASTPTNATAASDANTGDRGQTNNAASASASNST
Sequence of RIPK4 (P57078 whole entry, species assumed): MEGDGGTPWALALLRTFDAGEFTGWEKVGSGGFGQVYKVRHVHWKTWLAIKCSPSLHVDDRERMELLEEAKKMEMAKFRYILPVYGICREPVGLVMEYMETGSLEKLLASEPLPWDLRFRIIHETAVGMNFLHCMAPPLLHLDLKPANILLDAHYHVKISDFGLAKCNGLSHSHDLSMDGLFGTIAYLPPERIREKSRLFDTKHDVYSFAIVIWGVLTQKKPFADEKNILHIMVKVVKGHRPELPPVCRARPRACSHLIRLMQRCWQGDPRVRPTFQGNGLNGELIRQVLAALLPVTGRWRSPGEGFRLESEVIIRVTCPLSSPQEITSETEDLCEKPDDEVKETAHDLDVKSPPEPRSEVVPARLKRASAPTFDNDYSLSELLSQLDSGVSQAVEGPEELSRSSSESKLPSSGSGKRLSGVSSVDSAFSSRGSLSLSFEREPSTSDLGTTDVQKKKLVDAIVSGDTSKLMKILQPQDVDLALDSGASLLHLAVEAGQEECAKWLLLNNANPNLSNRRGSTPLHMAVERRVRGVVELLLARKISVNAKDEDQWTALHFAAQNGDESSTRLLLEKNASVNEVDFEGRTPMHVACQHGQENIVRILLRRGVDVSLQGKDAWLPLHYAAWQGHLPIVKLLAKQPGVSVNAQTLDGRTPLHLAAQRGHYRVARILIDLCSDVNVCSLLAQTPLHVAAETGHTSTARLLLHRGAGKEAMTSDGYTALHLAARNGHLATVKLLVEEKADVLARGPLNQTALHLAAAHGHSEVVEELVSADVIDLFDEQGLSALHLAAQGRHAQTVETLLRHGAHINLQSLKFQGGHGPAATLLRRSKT
Sequence of Human ACC2 (O00763 whole entry): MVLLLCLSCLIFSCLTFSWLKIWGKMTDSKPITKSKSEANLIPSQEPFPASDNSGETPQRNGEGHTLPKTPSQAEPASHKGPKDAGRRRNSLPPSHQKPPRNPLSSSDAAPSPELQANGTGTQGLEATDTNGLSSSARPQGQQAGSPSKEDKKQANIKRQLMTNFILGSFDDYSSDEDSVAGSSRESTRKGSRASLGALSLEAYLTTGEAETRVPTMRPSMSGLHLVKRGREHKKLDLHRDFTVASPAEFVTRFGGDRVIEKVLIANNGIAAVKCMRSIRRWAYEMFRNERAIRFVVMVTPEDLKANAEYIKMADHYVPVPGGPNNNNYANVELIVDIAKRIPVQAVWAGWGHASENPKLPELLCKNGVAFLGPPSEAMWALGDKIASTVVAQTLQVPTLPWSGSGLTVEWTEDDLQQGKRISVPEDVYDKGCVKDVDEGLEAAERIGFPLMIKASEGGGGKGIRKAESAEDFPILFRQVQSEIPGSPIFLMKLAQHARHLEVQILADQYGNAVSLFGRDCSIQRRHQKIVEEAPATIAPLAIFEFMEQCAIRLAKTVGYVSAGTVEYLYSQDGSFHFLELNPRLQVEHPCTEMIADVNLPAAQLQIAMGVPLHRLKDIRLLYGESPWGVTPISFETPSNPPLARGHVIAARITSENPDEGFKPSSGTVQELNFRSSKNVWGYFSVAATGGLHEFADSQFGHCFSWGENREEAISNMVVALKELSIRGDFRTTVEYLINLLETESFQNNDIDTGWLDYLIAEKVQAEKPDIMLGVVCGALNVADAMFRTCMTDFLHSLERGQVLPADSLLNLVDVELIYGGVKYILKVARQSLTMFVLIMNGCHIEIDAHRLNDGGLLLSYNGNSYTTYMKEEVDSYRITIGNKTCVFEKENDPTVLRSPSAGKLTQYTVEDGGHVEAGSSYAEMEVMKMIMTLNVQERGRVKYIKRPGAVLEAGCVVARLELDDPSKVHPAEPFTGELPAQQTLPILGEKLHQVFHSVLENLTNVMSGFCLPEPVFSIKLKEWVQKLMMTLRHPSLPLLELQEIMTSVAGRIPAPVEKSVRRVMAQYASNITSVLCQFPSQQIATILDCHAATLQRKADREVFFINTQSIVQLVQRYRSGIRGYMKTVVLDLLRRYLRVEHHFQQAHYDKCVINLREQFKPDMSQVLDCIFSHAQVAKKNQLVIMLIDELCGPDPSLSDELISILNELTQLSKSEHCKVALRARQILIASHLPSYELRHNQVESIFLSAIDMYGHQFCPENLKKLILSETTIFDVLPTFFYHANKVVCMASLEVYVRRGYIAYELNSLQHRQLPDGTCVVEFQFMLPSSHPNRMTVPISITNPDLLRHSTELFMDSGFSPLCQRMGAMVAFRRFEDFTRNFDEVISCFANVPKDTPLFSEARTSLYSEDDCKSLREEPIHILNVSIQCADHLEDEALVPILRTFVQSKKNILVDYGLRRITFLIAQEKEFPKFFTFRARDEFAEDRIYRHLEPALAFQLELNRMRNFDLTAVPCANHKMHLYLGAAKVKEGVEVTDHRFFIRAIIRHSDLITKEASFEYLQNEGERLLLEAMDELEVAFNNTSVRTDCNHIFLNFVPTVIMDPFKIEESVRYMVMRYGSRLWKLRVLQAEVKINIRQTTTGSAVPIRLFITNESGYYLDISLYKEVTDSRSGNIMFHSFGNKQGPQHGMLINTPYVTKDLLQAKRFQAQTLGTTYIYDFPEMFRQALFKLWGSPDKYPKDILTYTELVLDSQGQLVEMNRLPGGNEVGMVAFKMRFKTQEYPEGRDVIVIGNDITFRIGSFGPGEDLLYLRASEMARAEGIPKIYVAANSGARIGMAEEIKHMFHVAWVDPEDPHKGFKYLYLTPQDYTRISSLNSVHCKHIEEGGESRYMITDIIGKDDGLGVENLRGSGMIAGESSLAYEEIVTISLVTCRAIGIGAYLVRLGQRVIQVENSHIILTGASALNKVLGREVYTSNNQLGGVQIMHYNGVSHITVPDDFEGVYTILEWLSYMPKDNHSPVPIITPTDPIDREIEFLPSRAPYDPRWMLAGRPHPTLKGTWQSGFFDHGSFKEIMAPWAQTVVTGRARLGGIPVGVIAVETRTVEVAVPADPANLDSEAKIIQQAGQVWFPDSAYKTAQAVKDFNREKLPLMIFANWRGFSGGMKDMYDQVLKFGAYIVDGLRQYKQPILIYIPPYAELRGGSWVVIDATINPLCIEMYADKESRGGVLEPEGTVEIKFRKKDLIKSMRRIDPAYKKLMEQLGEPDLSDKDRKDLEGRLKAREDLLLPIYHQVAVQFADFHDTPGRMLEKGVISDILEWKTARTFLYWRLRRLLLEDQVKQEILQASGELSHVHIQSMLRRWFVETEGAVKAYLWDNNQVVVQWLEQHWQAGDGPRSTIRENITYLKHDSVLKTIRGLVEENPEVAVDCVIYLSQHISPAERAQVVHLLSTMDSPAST

Compound	% Enzyme Activity (relative to DMSO controls) (RIPK4)	% Enzyme Activity (relative to DMSO controls) (CAMK2g)	% Enzyme Activity (relative to DMSO controls) (MAPKAPK2)	Compound IC50 (M) ACC2 (Human ACC2)	% Enzyme Activity (relative to DMSO controls) (MLCK/MYLK)	Markers of fibrosis / UUO-induced renal fibrosis [1]	Renal T-lymphocyte infiltration (CD3 stain) [1]	Renal macrophage infiltration (F4/80 stain) [1]	Trichrome staining (kidney fibrosis) [1]	αSMA staining (kidney fibrosis) [1]	% Enzyme Activity (relative to DMSO controls) (GSK3b)	% Enzyme Activity (relative to DMSO controls) (Aurora B)
CC(C)(CCCCc1ccc(CCCCC(C)(C)C(=O)O)cc1)C(=O)O [Compound I-1, 6-[4-(5-carboxy-5-methylhexyl)-phenyl]-2,2-dimethylhexanoic acid]	42.78%	57.02%	92.75%	*	106.34%	attenuated	no effect; also recorded: unaffected	significantly reduced; also recorded: similarly effective in decreasing	decreased	decreased	82.73%	63.21%
CC(C)(CCCCc1cccc(CCCCC(C)(C)C(=O)O)c1)C(=O)O [Compound I-32, 6-[3-(5-carboxy-5-methylhexyl)-phenyl]-2,2-dimethylhexanoic acid]	42.74%	66.13%	90.61%	*	103.59%	attenuated	no effect; also recorded: unaffected	significantly reduced; also recorded: similarly effective in decreasing	trend to reduction	trend to reduction	72.67%	67.29%

Source: US20240398737A1, “FUNCTIONALIZED LONG-CHAIN HYDROCARBON MONO- AND DI-CARBOXYLIC ACIDS AND DERIVATIVES THEREOF, AND THEIR USE FOR THE PREVENTION OR TREATMENT OF DISEASE” (Espervita Therapeutics, Inc., priority 2021, published 2024)
